Data from US12139472B2, “Inhibitors of advanced glycation end products” (priority 2019, dated 2024).
“And” between values parts separate entries of the source, which are not always exact repeats. Equal entries are not always repeated.

Experiments:
[1] = Pharmacokinetic study for PTG-630 (IV and PO): plasma, whole blood, tissues, urine; assay type: in vivo, Sprague Dawley rats; settings: for PTG-4997 (metabolite) concentration: Table 2, for PTG-4997 (metabolite) after PTG-630 PO 100 mg/kg
Description: The samples were analyzed in two batches with standards and QCs prepared on rat plasma and rat urine. Analyst® 1.6 (SCIEX) software was used for statistical analysis of bioanalytical data. […] Dose samples collected at 0.083 h-6 h postdose were diluted 4 times with SD rat plasma prior to plating. Twenty-four (24) hours plasma samples were assayed without dilution. […] Two sciatic nerve samples were excluded from analysis, due to the insufficient sample size. […] The 12 non-cannulated animals were arbitrarily assigned to groups upon arrival and housed together throughout the experiment. The animals were acclimated to their designated housing for at least 24 hours before the first day of dosing. […] Blood samples were collected via cannula from IV dosed rats or by cardiac stick from PO dosed rats at the specified time points for sampling pharmacokinetics. Blood was collected into K2EDTA tubes. Tubes were mixed gently after blood collection, chilled and centrifuged at 3000 rpm, 4° C. within 30 minutes upon collection. The samples were centrifuged at 4° C. and the resultant plasma separated. […] Urine from Group 1 was collected via polycarbonate tubes from rats placed in drug metabolism cages. Urine was maintained and room temperature through the collection period.

CYP3A = assay type: in vitro ADME, human; settings: HLM
Source text: Compound 5 (PTG-630 free base) and 7 additional compounds for CYP3A P450 inhibition.
Imidazole (and benzimidazole) containing drugs are ubiquitous in pharmacological practice; however, drug-drug interactions (DDI) have been observed with some imidazole-containing classes, such as the antifungal azoles typified by ketoconazole. It is believed that the imidazole moiety accounts for their ability to inhibit CYP3A, the major DDI enzyme that metabolizes up to 50% of common drugs. The compounds of the disclosure incorporate an imidazole moiety attached to a pyridine ring via the imidazole C-2. They all share an imidazo-hydroxypyridine theme that can bind redox metal ions, while differing in the nature of the X side-chain. The potential of the compounds of the disclosure for DDI was evaluated by screening their inhibition of CYP3A.
Two studies were conducted in human liver microsomes (HLM). Lead candidate PTG-630 was tested using the Eurofins G232 panel (Drug Metab Dispos. 2001 January; 29(1):23-9), where inhibition was measured against seven CYP enzymes; CYP3A4 was tested using two different substrates, midazolam and testosterone. In a second study, inhibition of CYP3A4 (midazolam substrate only) was compared for 8 compounds of interest. The test protocol involved one-point measurements in duplicate, where inhibition was measured at a fixed 10 μM concentration of candidate inhibitors. In all cases, the substrate for each CYP enzyme was at a concentration equal to its specific Km value that was independently obtained from an 8-point dose-response study. Based on the observed value for percent inhibition for each test compound, we calculated of an IC50 assuming a competitive mode of inhibition. If percent inhibition for an inhibitor at a concentration of [I] is denoted by P, then: IC50=[I]*(100−P)/P In the single-point assay, [I] is 10 μM. If measured inhibition is 10%, then IC50=10*(100-10)/10=90 μM. […] As discussed in Lin et al. (J Pharm Sci. 2007 September; 96(9):2485-93; doi: 10.1002/jps.20884), CYP inhibition is broadly interpreted as being “potent” if IC50<1 μM, “moderate” if 1 μM<IC50<10 μM, and “weak” if IC50>10 μM.

Cc1ncc(CO)c(-c2ncc[nH]2)c1O [PTG-4997]
PTG-4997 (metabolite) concentration ([1]; muscle, 2 h postdose, Mean): <BLQ
PTG-4997 (metabolite) concentration ([1]; muscle, 2 h postdose, individual animals): <BLQ
PTG-4997 (metabolite) concentration ([1]; muscle, 4 h postdose, Mean): 54 ng/mL
PTG-4997 (metabolite) concentration ([1]; muscle, 4 h postdose, individual animals, 100 mg/kg): 108 ng/mL and <BLQ
PTG-4997 (metabolite) concentration ([1]; muscle, 6 h postdose, Mean): 127.5 ng/mL
PTG-4997 (metabolite) concentration ([1]; muscle, 6 h postdose, individual animals, 100 mg/kg): 108 ng/mL and 147 ng/mL
PTG-4997 (metabolite) concentration ([1]; muscle, 24 h postdose, Mean): <BLQ
PTG-4997 (metabolite) concentration ([1]; muscle, 24 h postdose, individual animals): <BLQ
PTG-4997 (metabolite) concentration ([1]; plasma, 0.5 h postdose, Mean): <BLQ
PTG-4997 (metabolite) concentration ([1]; plasma, 0.5 h postdose, individual animals): <BLQ
PTG-4997 (metabolite) concentration ([1]; plasma, 1 h postdose, Mean): <BLQ
PTG-4997 (metabolite) concentration ([1]; plasma, 1 h postdose, individual animals): <BLQ
PTG-4997 (metabolite) concentration ([1]; plasma, 2 h postdose, Mean): <BLQ
PTG-4997 (metabolite) concentration ([1]; plasma, 2 h postdose, individual animals): <BLQ
PTG-4997 (metabolite) concentration ([1]; plasma, 4 h postdose, Mean): <BLQ
PTG-4997 (metabolite) concentration ([1]; plasma, 4 h postdose, individual animals): <BLQ
PTG-4997 (metabolite) concentration ([1]; plasma, 6 h postdose, Mean): <BLQ
PTG-4997 (metabolite) concentration ([1]; plasma, 6 h postdose, individual animals): <BLQ
PTG-4997 (metabolite) concentration ([1]; plasma, 24 h postdose, Mean): <BLQ
PTG-4997 (metabolite) concentration ([1]; plasma, 24 h postdose, individual animals): <BLQ
PTG-4997 (metabolite) concentration ([1]; sciatic nerve, 0.5 h postdose, Mean): <BLQ
PTG-4997 (metabolite) concentration ([1]; sciatic nerve, 0.5 h postdose, individual animals): <BLQ
PTG-4997 (metabolite) concentration ([1]; sciatic nerve, 1 h postdose, Mean): <BLQ
PTG-4997 (metabolite) concentration ([1]; sciatic nerve, 1 h postdose, individual animals): <BLQ
PTG-4997 (metabolite) concentration ([1]; sciatic nerve, 2 h postdose, Mean): <BLQ
PTG-4997 (metabolite) concentration ([1]; sciatic nerve, 2 h postdose, individual animals): <BLQ
PTG-4997 (metabolite) concentration ([1]; sciatic nerve, 4 h postdose, Mean): <BLQ
PTG-4997 (metabolite) concentration ([1]; sciatic nerve, 4 h postdose, individual animals): <BLQ
PTG-4997 (metabolite) concentration ([1]; sciatic nerve, 6 h postdose, Mean): <BLQ
PTG-4997 (metabolite) concentration ([1]; sciatic nerve, 6 h postdose, individual animals): <BLQ
PTG-4997 (metabolite) concentration ([1]; sciatic nerve, 24 h postdose, Mean): <BLQ
PTG-4997 (metabolite) concentration ([1]; sciatic nerve, 24 h postdose, individual animals): <BLQ
AUC last in kidney, times lower than PTG-630 in kidneys ([1]; after PTG-630 PO): 3 times
detection in plasma following IV dosing ([1]; metabolite PTG-4997 after PTG-630 IV): only detected in the plasma of single animal
presence in kidney ([1]; metabolite PTG-4997 after PTG-630 PO): present in steady level for 24 hours
presence in muscle samples ([1]; metabolite PTG-4997 after PTG-630 PO, 4-6 hours postdose): intermittently present
detection in plasma following PO administration ([1]; metabolite PTG-4997 after PTG-630 PO, any timepoint): not detectable
presence in liver samples ([1]; metabolite PTG-4997 after PTG-630 PO, any timepoint through 24 hours postdose): undetectable
average amount recovered from each animal ([1]; urine, 24 hours, after PTG-630 IV): 146 ng
excretion rate, times lower than PTG-630 ([1]; urine, after PTG-630 IV): 34 times
Estimated IC50 (CYP3A; midazolam, from one-point % inhibition at 10 μM, IC50=[I]*(100−P)/P): — None
P % inhib (CYP3A; substrate midazolam at Km, Inhib Conc. 1.0E−05 M): −4.9%
